Key:
[1] = target: hSERT (human serotonin transporter) (Homo sapiens, UniProt P31645, M370L); assay: cell-based; design: species or system HEK-293, transiently transfected
[2] = target: hSERT V367I (Homo sapiens, UniProt P31645, V367I); assay: cell-based; design: species or system HEK-293, transiently transfected
Chain of hSERT V367I (P31645 whole entry V367I): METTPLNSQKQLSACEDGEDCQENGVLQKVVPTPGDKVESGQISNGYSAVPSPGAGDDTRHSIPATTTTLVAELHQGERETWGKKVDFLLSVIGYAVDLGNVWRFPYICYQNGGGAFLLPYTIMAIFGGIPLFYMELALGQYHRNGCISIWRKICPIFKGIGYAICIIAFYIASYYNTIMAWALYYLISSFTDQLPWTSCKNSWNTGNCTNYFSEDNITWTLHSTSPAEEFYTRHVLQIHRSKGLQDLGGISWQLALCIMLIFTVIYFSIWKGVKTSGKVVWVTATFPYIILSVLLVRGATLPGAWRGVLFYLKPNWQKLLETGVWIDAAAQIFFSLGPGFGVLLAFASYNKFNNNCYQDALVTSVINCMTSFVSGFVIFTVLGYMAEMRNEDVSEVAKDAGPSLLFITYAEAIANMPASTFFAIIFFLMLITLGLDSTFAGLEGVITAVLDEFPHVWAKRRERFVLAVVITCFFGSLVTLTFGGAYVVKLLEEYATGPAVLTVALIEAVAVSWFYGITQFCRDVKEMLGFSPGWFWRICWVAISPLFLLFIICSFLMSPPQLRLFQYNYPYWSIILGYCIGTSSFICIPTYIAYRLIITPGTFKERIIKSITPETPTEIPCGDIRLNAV

Chain of hSERT (human serotonin transporter) (P31645 whole entry M370L): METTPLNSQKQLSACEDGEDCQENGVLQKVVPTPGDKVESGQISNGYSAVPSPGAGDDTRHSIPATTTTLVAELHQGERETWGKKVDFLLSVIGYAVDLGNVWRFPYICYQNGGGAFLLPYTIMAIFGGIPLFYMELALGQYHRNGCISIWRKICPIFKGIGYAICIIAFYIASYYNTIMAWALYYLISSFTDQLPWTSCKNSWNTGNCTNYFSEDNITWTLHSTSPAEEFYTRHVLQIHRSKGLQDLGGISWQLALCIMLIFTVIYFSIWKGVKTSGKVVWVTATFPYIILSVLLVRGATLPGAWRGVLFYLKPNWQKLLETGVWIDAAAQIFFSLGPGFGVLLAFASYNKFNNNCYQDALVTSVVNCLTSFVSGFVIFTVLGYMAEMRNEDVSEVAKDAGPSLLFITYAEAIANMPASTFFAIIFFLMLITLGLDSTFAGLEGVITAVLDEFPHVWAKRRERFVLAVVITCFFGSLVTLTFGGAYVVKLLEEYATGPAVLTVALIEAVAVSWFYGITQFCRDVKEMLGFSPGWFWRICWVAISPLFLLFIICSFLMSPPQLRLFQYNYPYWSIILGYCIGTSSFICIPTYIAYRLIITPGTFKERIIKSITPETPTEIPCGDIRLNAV

## COC(=O)[C@H]1[C@@H](c2ccc(I)cc2)C[C@@H]2CC[C@H]1N2C [RTI-55]
[1]
  Ki: 16 ± 2 nM
[2]
  Ki: 16 ± 6 nM
